Results reported in article PMC9612005 (Pharmaceutics, 2022).
Where “and” joins values, the source holds several entries; their conditions need not be identical. Identical values can stand only once. Like-named read-outs stand apart in the source and are kept apart here.

Key:
[1] = tested on: retinal ganglion cells; test: Light-evoked retinal ganglion cell spike responses of mouse retinal explants on MEA; type: cell-based; settings: for Spike count (10 ms bin): inh 50 µM, act 0.1 µM, mean ±std; for drop of RGC spiking activity: ≥−2.0 log
Method: (§1) Further animal experiments were performed using adult postnatal-day (P) 25–30 C57BL/6J mice (n = 12). Animals were housed under standard 12 h white cyclic lighting, had free access to food, water, and playgrounds, and were used irrespective of gender. Animal protocols compliant with §4 of the German law on animal protection were reviewed and approved by the Tübingen University committee on animal protection, and registered on 30 March 2022 under the No. AK05/22M. Moreover, experiments were performed in accordance with the ARVO statement for the use of animals in ophthalmic and visual research. All efforts were made to minimize the number of mice used and their suffering.
(§2) The mice were kept overnight in a ventilated light-tight box for dark-adaption. Subsequent procedures were performed under dim red light. The eyes of the mice were enucleated; then, the retina was isolated in extracellular solution containing (in mM): 125 NaCl, 26 NaHCO3, 2.5 KCl, 2 CaCl2, 1 MgCl2, 1.25 NaH2PO4, and 20 glucose, and was maintained at pH 7.4 using carboxygen perfusion (95/5% O2/CO2). All chemicals were obtained from Merck KGaA (Darmstadt, Germany). For MEA recording, the retinas were placed in the MEA-recording chamber (GC-side down). During the recordings, the tissue was perfused with carboxygenated medium at 32 °C. The chamber perfusion rate was adjusted to 2 mL/min.
(§3) Electrophysiological recordings were performed to assess the light dependent retinal responses (photoreceptors µERG and RGCs spikes) by means of a multi-electrode array system (MEA, USB-MEA60-Up-BC-System-E from Multi Channel Systems, Reutlingen, Germany) equipped with MEA 200/30iR-ITO-pr. The recordings were performed at a 25,000 Hz sampling-rate collecting unfiltered raw data. The trigger-synchronized operation of the light stimulation (LEDD1B T-Cube, Thorlabs) and MEA recording were controlled by the recording protocol set within the MCRack software (v 4.6.2, Multi Channel Systems, Reutlingen, Germany) and the digital I/O box (MCS). The light stimulation (white light LED, 2350 mW, MCWHD3, Thorlabs, Newton, NJ, USA) was applied from beneath the transparent glass MEA, guided by optic fiber and optics. A spectrometer USB4000-UV-VIS-ES (Ocean Optics, Orlando, FL, USA) was employed to calibrate the intensity of the applied light-stimulation protocol. To discriminate the rod and cone photoreceptor responses, a light-stimulation protocol for ex vivo MEA recordings was established following the standard in-vivo ERG protocol. For scotopic recordings (rod responses), the animals were dark-adapted (12 h), while for the photopic recordings (cone responses), the retinal explants were light-adapted on the MEA (5 min at intensity of 4.20 × 10^13 photons/cm^2/s), subsequent to scotopic stimulation. The parameters of the light stimuli were set as: light flash 250 ms long (3 repetition per light intensity, 20 s interval). Scotopic: 10 stimuli in 0.5 log steps from −4.5 to 0.0 (1.33 × 10^9–4.20 × 10^13 photons/cm^2/s). Photopic (background light: 4.20 × 10^13 photons/cm^2/s): four stimuli in 0.5 log steps from +0.5 to +2.0 (1.33 × 10^14–4.20 × 10^15 photons/cm^2/s).
(§4) MEA-recorded raw data files were filtered employing a Butterworth 2nd order filter (MC-Rack, Multi-channel systems) to extract the µERG (field potentials: bandpass 0.01–100 Hz) and spikes (high pass 200 Hz). The filtered data were converted to *.hdf files by MC DataManager (v1.6.1.0, Multi Channel Systems, Reutlingen, Germany) for further data processing in MATLAB [39]. Shown traces data are the average of 30 MEA recording electrodes, per condition. n = 5 retinae were recorded per condition. Statistical significance was estimated by one-way ANOVA followed by the Dunnett´s test for multiple comparisons. Experimental data are given as mean ± SEM.

[2] = molecular target: T1, rod CNG channels (CNGA1:CNGB1a) (Bos taurus, UniProt Q00194+Q28181); test: Patch-clamp on inside-out patches, heterotetrameric rod CNG channels expressed in Xenopus laevis oocytes; type: cell-based, bovine
T1 construct: expressed in transfected cells; host or cells: Xenopus laevis oocytes (cRNA injection, pGEMHE vector); inside-out patches
Text: The patch pipettes were pulled from borosilicate glass tubing (outer diameter 2.0 mm, inner diameter 1.0 mm; Hilgenberg GmbH, Malsfeld, Germany). The initial resistance of the solution-filled pipettes was 0.6–1.4 MΩ. […] For studying the activation and deactivation kinetics of CNG channels, we performed fast jumps between different ligand concentrations by means of a double-barreled θ-glass pipette mounted on a piezo-driven device, which was controlled by the computer. For measuring the time courses, the recording rate was 20 kHz. […]

[3] = tested on: cone photoreceptors; test: µERG a-wave of mouse retinal explants on MEA, photopic (light-adapted) stimulation; type: cell-based; settings: for decrease in the a-wave slope vs control / a-wave amplitude / a-wave slope: photopic; for decrease in the a-wave slope vs control: averaged; for decrease in the a-wave slope vs control / cone a-wave responses under photopic stimulation: inhibitor 50 µM, activator 0.1 µM; for a-wave amplitude / a-wave slope: inh 50 µM, act 0.1 µM, mean ±std; for cone a-wave responses under photopic stimulation: ≥+0.5 log
Method: as §1, §2, §3
as §4, with “Experimental data are given as mean ± SEM.” left out

[4] = photopic, light intensity +0.5 log
[5] = photopic, light intensity +1.0 log
[6] = photopic, light intensity +1.5 log
[7] = photopic, light intensity +2.0 log
[8] = scotopic, light intensity 0.0 log
[9] = scotopic, light intensity -0.5 log
[10] = scotopic, light intensity -1.0 log
[11] = scotopic, light intensity -1.5 log
[12] = scotopic, light intensity -2.0 log
[13] = scotopic, light intensity -2.5 log
[14] = scotopic, light intensity -3.0 log
[15] = scotopic, light intensity -3.5 log
[16] = scotopic, light intensity -4.0 log
[17] = scotopic, light intensity -4.5 log
[18] = scotopic, inhibitor 50 µM, activator 0.1 µM

T1 sequence (Q00194 whole entry): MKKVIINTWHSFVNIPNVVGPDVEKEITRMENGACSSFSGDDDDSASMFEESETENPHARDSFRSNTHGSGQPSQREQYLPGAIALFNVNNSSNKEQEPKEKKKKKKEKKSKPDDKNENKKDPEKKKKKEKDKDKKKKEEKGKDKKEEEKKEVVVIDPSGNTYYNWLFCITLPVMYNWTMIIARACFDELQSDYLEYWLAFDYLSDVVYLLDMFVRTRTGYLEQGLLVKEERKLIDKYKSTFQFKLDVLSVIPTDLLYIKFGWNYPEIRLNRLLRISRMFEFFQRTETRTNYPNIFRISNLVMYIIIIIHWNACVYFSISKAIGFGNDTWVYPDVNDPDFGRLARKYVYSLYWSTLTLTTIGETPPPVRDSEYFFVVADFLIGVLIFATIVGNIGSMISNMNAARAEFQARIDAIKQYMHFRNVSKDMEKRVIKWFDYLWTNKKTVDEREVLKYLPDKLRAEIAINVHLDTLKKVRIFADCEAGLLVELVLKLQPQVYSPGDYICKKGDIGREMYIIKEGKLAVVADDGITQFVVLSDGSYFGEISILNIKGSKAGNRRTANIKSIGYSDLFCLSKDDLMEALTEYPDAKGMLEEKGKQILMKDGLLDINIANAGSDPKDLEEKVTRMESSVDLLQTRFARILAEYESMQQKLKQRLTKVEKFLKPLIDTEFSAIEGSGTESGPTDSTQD
T1 sequence (Q28181 whole entry): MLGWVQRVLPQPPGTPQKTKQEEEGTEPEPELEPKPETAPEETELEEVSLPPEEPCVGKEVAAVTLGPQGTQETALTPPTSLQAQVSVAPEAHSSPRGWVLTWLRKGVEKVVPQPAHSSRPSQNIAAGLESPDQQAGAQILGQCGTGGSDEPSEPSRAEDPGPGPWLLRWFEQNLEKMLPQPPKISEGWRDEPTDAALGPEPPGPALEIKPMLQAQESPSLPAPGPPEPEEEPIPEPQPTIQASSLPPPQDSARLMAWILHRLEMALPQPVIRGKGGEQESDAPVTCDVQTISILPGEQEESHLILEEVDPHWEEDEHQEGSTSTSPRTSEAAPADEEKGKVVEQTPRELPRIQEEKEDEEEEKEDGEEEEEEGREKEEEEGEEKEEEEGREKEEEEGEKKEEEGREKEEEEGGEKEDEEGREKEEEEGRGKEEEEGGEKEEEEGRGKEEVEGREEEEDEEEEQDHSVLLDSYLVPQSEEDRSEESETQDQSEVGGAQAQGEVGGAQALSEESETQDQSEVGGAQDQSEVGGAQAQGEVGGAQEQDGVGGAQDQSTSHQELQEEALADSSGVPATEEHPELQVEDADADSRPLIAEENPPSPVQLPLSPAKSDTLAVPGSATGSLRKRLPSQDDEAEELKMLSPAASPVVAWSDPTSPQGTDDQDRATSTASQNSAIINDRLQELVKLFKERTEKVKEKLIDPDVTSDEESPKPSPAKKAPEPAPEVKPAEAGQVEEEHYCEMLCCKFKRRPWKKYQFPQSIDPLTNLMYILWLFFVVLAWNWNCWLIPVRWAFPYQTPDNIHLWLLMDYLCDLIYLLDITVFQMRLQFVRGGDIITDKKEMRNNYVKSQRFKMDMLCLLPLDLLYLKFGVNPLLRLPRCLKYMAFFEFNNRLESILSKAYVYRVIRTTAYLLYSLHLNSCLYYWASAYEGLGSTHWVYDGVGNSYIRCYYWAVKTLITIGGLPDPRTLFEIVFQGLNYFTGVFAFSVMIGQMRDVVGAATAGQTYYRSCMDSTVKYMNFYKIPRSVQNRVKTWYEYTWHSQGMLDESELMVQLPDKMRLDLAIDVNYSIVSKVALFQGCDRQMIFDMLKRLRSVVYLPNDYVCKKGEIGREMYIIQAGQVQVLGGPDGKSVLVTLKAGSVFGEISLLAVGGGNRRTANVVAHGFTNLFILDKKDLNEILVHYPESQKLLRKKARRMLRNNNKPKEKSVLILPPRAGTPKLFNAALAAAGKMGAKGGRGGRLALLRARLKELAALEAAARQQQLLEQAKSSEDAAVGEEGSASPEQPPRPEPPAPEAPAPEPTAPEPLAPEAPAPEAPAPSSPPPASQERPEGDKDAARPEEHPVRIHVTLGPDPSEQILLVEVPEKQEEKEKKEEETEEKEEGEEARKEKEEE

Compound | Spike count (10 ms bin) [1, 4] | Spike count (10 ms bin) [1, 5] | Spike count (10 ms bin) [1, 6] | Spike count (10 ms bin) [1, 7] | Spike count (10 ms bin) [1, 8] | Spike count (10 ms bin) [1, 9] | Spike count (10 ms bin) [1, 10] | Spike count (10 ms bin) [1, 11] | Spike count (10 ms bin) [1, 12] | Spike count (10 ms bin) [1, 13] | Spike count (10 ms bin) [1, 14] | Spike count (10 ms bin) [1, 15] | Spike count (10 ms bin) [1, 16] | Spike count (10 ms bin) [1, 17] | drop of RGC spiking activity [1, 18] | decrease in the a-wave slope vs control [3] | a-wave amplitude ([3]; light intensity +0.5 log) | a-wave slope ([3]; light intensity +0.5 log) | a-wave amplitude ([3]; light intensity +1.0 log) | a-wave slope ([3]; light intensity +1.0 log) | other results
Nc1nc2c(nc(Sc3ccc(Cl)cc3)n2[C@@H]2O[C@@H]3COP(=O)(O)O[C@H]3[C@H]2O)c(=O)[nH]1 [8-pCPT-cGMP] | 4.35± 0.79 | 4.43± 0.47 | 4.74± 1.09 | 4.56± 0.92 | 3.92± 0.24 | 3.60± 0.35 | 3.03± 0.52 | 3.04± 0.49 | 2.41± 0.38 | 1.28± 0.51 | 0.73± 0.49 | 0.86± 0.30 | 0.89± 0.07 | 0.67± 0.22 | 35–47% | ~ 60% | -3.04± 1.68 µV | -0.04± 0.06 µV / 20 ms | -7.72± 1.37 µV | 0.07± 0.22 µV / 20 ms | effect on rod channels ([2]; 0.1 µM): almost no effect on rod channels; potency compared to cGMP, rod channel ([2]; higher potency than cGMP): ~ 63 times; H (Hill coefficient), rod CNG channels ([2]; ligand alone): 2.2; EC50 ([2]; ligand alone, concentration-activation relationship, Hill fit, read-out: EC50, rod CNG channels): 630 nM; a-wave amplitude ([3]; light intensity +1.5 log): -10.79± 1.41 µV; a-wave slope ([3]; light intensity +1.5 log): -0.18± 0.09 µV / 20 ms; a-wave amplitude ([3]; light intensity +2.0 log): -12.55± 1.72 µV; a-wave slope ([3]; light intensity +2.0 log): -0.23± 0.11 µV / 20 ms; cone a-wave responses under photopic stimulation [3]: no effect on cones
O=c1c2nc(Br)n([C@@H]3O[C@@H]4CO[P@@](=O)(S)O[C@H]4[C@H]3O)c2nc2[nH]c(-c3ccccc3)cn12 [Rp-8-Br-PET-cGMPS] | 4.85± 0.92 | 4.40± 0.94 | 4.51± 1.07 | 4.92± 1.12 | 3.80± 0.26 | 3.48± 0.49 | 2.91± 0.16 | 2.80± 0.63 | 2.55± 0.62 | 0.83± 0.28 | 0.72± 0.10 | 1.14± 0.50 | 0.98± 0.44 | 1.03± 0.27 | 30–40% | ~90% | -1.53± 0.76 µV | 0.03± 0.02 µV / 20 ms | -1.98± 0.87 µV | -0.04± 0.02 µV / 20 ms | RGC spiking activity under photopic stimulation ([1]; ≥+0.5 log, inhibitor 50 µM, activator 0.1 µM): remained nearly at control levels; EC50 [2]: 450 nM; decrease in the apparent affinity of rod CNG channels (increase of cGMP EC50) ([2]; 50 µM analogue): ~ 4.9 fold and ~ 5 fold; H (Hill coefficient), rod CNG channels ([2]; cGMP + 50 µM of the cGMP analogue): 1.90; a-wave amplitude ([3]; light intensity +1.5 log): -1.96± 0.89 µV; a-wave slope ([3]; light intensity +1.5 log): -0.05± 0.05 µV / 20 ms; a-wave amplitude ([3]; light intensity +2.0 log): -2.27± 0.97 µV; a-wave slope ([3]; light intensity +2.0 log): -0.01± 0.01 µV / 20 ms; cone a-wave responses under photopic stimulation [3]: the cone a-wave amplitudes showed only minimal increases
